Experimental data from publication PMC5841303, “In silico screening for human norovirus antivirals reveals a novel non-nucleoside inhibitor of the viral polymerase” (Scientific Reports, 2018).
pIC50: −log10 of the molar value.

Biological target: T1, MNV RdRp (Norovirus, UniProt Q80J95)
T1 construct: made in house
Assay: Fluorescent RdRp activity assay, MNV RdRp
Assay type: biochemical, murine norovirus
Conditions: 0.1–100 µM; read-out: IC50 against MNV RdRp
Excerpt: The antiviral activity of the four compounds (11, 13, 42a and 54) were examined for inhibition of RNA polymerases from other viruses spanning three genera of the Caliciviridae family, including Norovirus (human norovirus and MNV), Lagovirus (rabbit haemorrhagic disease virus [RHDV]) and Sapovirus (human sapovirus). […] The protein sequence of the examined calicivirus polymerases has an identity range between 30.2–61.4%, and therefore the broad-spectrum activity of these compounds could be attributed to a common, highly-conserved binding pocket across the RdRps, as has been previously reported with broad-spectrum activity of other site-B binding NNIs[16]. Moreover, the ability of each compound to inhibit the different RdRps in a similar range could be further confirmation of targeting a well-conserved binding site of the Caliciviridae family.
Recombinant calicivirus RdRps (GenBank accession numbers) norovirus GII.Pe/GII.4 Sydney 2012 (KT239579), MNV GV CW1 (DQ285629), RHDV Czech V351 (KF594473.1), and SaV GI.1 Mc114 (AY237422) were expressed and purified as described previously[60],[61]. […]
Fluorescent RdRp activity assays were carried out as previously described[14],[62]. Briefly, RdRp activity was quantified by monitoring the formation of double-stranded RNA (dsRNA) from a single stranded homopolymeric template, poly(C) (Sigma Aldrich, St Louis, MO, USA), using the fluorescent dye PicoGreen (Life Technologies, Carlsbad, CA, USA). […] RdRps were incubated for 10 mins at 30 °C in the presence of the test compounds or the compound vehicle DMSO (0.5% vol/vol) before addition into the reaction mixture, which was then allowed to run 15 min at 30 °C then terminated with 10 mM EDTA, followed by PicoGreen staining and dsRNA quantitation. […] In cases where fluorescent enhancement was recorded for a compound instead of inhibition, a secondary gel-based polymerase activity assay was used as a counter-screen as described below, to exclude the possibility of RdRp activity enhancement (Supplementary Fig. S1). […] Antagonism was calculated using Compusyn software V1.0[59]. […]

T1 sequence (Q80J95 1178-1687): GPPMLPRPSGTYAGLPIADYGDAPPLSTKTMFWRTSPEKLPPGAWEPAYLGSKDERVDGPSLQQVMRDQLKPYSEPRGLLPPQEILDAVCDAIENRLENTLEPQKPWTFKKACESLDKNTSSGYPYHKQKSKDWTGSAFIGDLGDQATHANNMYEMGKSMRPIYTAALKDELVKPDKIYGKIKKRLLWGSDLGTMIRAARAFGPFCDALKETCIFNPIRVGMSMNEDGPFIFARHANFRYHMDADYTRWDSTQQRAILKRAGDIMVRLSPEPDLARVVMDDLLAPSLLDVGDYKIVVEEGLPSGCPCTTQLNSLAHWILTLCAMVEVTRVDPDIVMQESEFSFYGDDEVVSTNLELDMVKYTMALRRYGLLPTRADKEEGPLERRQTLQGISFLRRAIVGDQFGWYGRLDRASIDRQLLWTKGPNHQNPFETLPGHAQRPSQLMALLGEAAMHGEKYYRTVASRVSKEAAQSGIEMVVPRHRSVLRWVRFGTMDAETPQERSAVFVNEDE

With O=C1NN(c2ccccc2)C(=O)/C1=C/c1ccc(-c2ccc(S(=O)(=O)Nc3ccccc3)cc2)o1 [Compound 54] the pIC50 was 4.92.
